The test system of one data set is primary cortical neurons. The data set is described as follows: In vitro anti-apoptosis assay (Caspase-Glo 3/7) on primary cortical neurons with staurosporine. The data set is classed as cell-based, Wistar rat. To be noted: compound 1 µM plus staurosporine 0,5 µM, sham 11 %, Fig. 6. From the text: Neuroprotection is attainable via the inhibition of apoptosis of affected neurons. The anti-apoptotic effect of thiabendazole and its derivatives can be assayed in vitro by measuring the caspase-3 and caspase-7 activities. These members of the cysteine aspartic acid-specific protease (caspase) family play key effector roles in apoptosis in mammalian cells. Cortical neurons have to be isolated and subsequently cultivated in a suitable culture medium. […] Parallel approaches with staurosporine alone and sham treatment of the cells serve as […]. The assay allows evaluating whether the test compound can compensate either completely or partially for the apoptotic effect of staurosporine.
The neuroprotective effect of compounds can be assayed in vitro by measuring caspase-3 and caspase-7 activities. These members of the cysteine aspartic acid-specific protease (caspase) family play a key effector role in apoptosis in mammalian cells.
These cells were isolated from twelve to fourteen cortices dissected from Wistar rat embryos on E18. The tissue was dissociated using 0,25 mg/ml trypsin, 0,1 mg/ml EDTA (Sigma), 100 µg/ml DNase (Roche Diagnostics Corp.) in HBSS. The digestion was stopped using 3 parts MEM-medium containing 10 % fetal calf serum, 0,45 % D-(+)glucose, 1 mM sodium-pyruvate and 0,25 µM glutamate. The cells were singularized by 10 strokes with a burnished Pasteur-pipette. After centrifugation, the cell pellet was dissolved in 10 ml medium and plated at a density of 30000 cells per well on a 96-well plate coated with poly-L-lysine for caspase-assays. […] Incubation with staurosporine (SP; 0,5 µM) alone served as positive control and incubation with vehicle (sham) served as negative control.

In data set [1] the target is cytochrom P450 1A2 (CyP1A2) (Homo sapiens, UniProt P05177). To be noted: cited from earlier work.
Chain of cytochrom P450 1A2 (CyP1A2) (P05177 whole entry, species assumed): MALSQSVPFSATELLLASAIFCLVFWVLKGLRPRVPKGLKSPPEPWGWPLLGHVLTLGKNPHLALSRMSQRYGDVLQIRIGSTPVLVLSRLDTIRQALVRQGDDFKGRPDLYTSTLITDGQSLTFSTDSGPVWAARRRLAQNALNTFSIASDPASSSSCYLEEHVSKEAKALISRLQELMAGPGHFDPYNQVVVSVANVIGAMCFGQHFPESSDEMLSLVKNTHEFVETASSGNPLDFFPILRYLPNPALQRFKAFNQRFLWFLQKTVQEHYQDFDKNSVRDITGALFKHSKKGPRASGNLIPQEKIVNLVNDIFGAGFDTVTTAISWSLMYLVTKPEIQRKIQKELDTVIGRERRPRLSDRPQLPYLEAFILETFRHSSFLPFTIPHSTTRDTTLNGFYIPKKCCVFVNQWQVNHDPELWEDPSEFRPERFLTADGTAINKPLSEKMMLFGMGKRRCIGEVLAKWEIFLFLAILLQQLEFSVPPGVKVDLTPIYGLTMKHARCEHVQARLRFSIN
The conditions of data set [2]: mouse; cited from earlier work.
The next data set deals with SH-SY5Y cells. The data set is described as follows: In vitro anti-apoptosis assay (Caspase-Glo 3/7) on SH-SY5Y cells with staurosporine. The data set is classed as cell-based, human.
For data set [3] the following is noted: rabbit; cited from earlier work.
For data set [4] the following is noted: rat; cited from earlier work.
For data set [5] the following is noted: man, oral, in 48 hours; cited from earlier work.
For the next data set, the system named is neural stem cells. The data set is described as follows: In vitro differentiation assay on adult neuronal stem cells (beta-III-tubulin promoter dual luciferase reporter). The data set is classed as cell-based, Wistar rats. An excerpt: The neuroregenerative effect of the compounds according to the present invention can be assayed in vitro by measuring their stimulation of the differentiation of neuronal stem cells. Therefore, adult neuronal stem cells have to be isolated and subsequently cultivated in a suitable culture medium. After several passages in vitro the stem cells have to be co-transfected with a DNA construct coding for two discriminable reporter proteins one of them under the control of a constitutive promoter and the other under the control of a beta-III-tubulin promoter. The beta-III-tubulin promoter is induced during the process of neuronal stem cell differentiation; therefore the reporter protein under the control of this promoter serves as a marker for the stem cell differentiation in such an in vitro dual reporter assay (Schneider et al., J Clin Investigation 2005; 115:2083-2098). The person skilled in the art knows several suitable constitutive promoters such as the SV40-promoter, the TK-promoter, or the CMV-promoter. As discriminable reporter proteins for such a dual reporter assay one can use discriminable luciferases such as firefly luciferase and Renilla luciferase. The transfected cells have to be incubated with the test compound and with positive and negative controls for normalization and background correction. As a positive control compound one can use retinoic acid (Guan et al., Cell Tissue Res. 2001; 305:171-176; Jacobs et al., Proc. Natl. Acad. Sci. USA 2006; 103:3902-3907), a suitable negative control is the sham treatment of the cells. The neroregenerative activity of the test compound is determined as the ratio of the signal of the beta-III-tubulin promoter controlled reporter versus the signal of the constitutively expressed reporter and is expressed as fold from the control. This assay is suitable to assess the neuroregenerative activity of thiabendazole and derivatives thereof, but also can be used to screen for other potential neuroregenerative compounds. Preferably, such a screening can be used to test compounds which are already known to be suitable as a medicament in terms of its toxicology, bioavailability, solubility, stability etc.
In vitro differentiation assay on adult neuronal stem cells with thiabendazole Neural stem cells were isolated from the subventricular zone of 4 week-old male Wistar rats as described (Maurer et al, Proteome Sci. 2003; 1:4). Cells were cultivated in Neurobasal medium (Invitrogen) supplemented with B27 (Invitrogen), 2mM L-glutamine, 100units/ml penicillin, 100units/ml streptomycin, 20ng/ml […] (EGF), 20ng/ml fibroblast growth factor-2 (FGF-2), and 2µg/ml heparin. Once a week the neural stem cells were passaged and experiments were performed after 4 weeks in vitro. For DNA transfection, the cells were dissociated and plated on poly-L-ornithin/laminin-coated 96-well plates at a density of 50.000 cells/well. Cotransfection with the pGL3-p-βIII-tubulin vector (100ng/well) and the pRL SV40 vector (100ng/well) was carried out according to the FuGene6 Transfection protocol (Roche). The pRL SV40 vector (Promega) served as an internal control vector.
To amplify the class III β-tubulin gene promoter (fragment -450 - +54), rat genomic DNA was used as a template for PCR (Dennis et al., Gene 2002;294:269-277). The amplified fragment was inserted into the Mlu I/Xho I site of the pGL3-Basic firefly luciferase reporter vector (Promega) to generate the pGL3-p-βIII-tubulin experimental vector.
After overnight incubation, the plate was decanted and given in 8-fold replicates fresh medium containing thiabendazole (Sigma) or vehicle. As a positive control for in vitro differentiation, stem cells were treated by adding 1 µM retinoic acid (Sigma) to the medium missing the mitogens.
After 48hrs, the cells were harvested to prepare the cellular extracts for luciferase assay following the directions of the manufacturer (Promega). […]

The text below walks through data of EP2251010A1, “Use of thiabendazole and derivatives thereof for the therapy of neurological conditions” (Sygnis Bioscience GmbH & Co. KG, priority 2009, dated 2010).

Read-outs that look alike come from different tables or passages of the source.

As to `c1ccc2[nH]c(-c3cscn3)nc2c1` [thiabendazole, 2-(4-thiazolyl)-benzimidazole], the “degree of apoptosis relative to the staurosporine control” value came to 58% in the data set with primary cortical neurons and 68% with SH-SY5Y cells (SH-SY5Y cells, compound 1 µM plus staurosporine 0,5 µM, sham 26 %, Fig. 5). The “inhibitor of cytochrom P450 1A2 (CyP1A2)” value in data set [1] is “potent inhibitor”. The “oral LD 50” value in data set [2] is recorded as 3,6 g/kg; in data set [3], 3,8 g/kg; in data set [4], 3,1 g/kg. Further, the “apoptotic effect by themselves” value in the data set on SH-SY5Y cells (compound without staurosporine) is on record as “Neither thiabendazole nor derivatives thereof exhibited an apoptotic effect by themselves”. Also, the “administered dose recovered from the feces” value in data set [5] is “about 5%”. Also, the “administered dose recovered from the urine” value in data set [5] is recorded as “about 90%”. Also, the “differentiation of neural stem cells to neurons (relative induction of the class III β-tubulin gene promoter controlled luciferase signal)” value with neural stem cells (0,2 to 100 µM final concentration, 48hrs, Fig. 1) is “significantly stimulates the differentiation of neural stem cells to neurons”; with neural stem cells (final concentrations of 1 µM and 10 µM, Fig. 4), “significantly stimulate the differentiation of neural stem cells to neurons”.
